Where two headings read alike, the source gives them in different places. Blank lines part the entries; values can stand above or below the molecule they belong to. Square brackets hold non-standard residues; d marks the D form. Peptide text beside a SMILES is read from it. Mpa = O=C(O)CCS
What was measured:
[1] = molecular target: thrombospondin binding to heparin; experiment: Inhibition of 125I-thrombospondin binding to immobilized heparin-BSA; parameters: species or system human
Experimental: (§1) The peptides were tested as inhibitors of laminin, thrombospondin or apolipoprotein E binding to a heparin-bovine serum albumen conjugate or to a sulfatide in a solid phase assay essentially following the procedure described in Zabrenetzky et al., Cancer Res., Vol. 50, pages 5937-5942 (1990). Sulfatide (0.2 μg/well for thrombospondin binding, 0.6 μg/well for laminin binding) was immobilized in a mixture of 50 ng of phosphatidyl choline, and 30 ng of cholesterol on polyvinyl chloride microtiter plates. Heparin-BSA (0.2 μg/well) was absorbed onto polyvinyl chloride microtiter plate wells by incubation of 50 μl of Dulbecco's PBS for 2 h at 37°. The wells were emptied and filled with 50 mM tris, pH 7.8 containing 150 mM NaCl, 1 mM CaCl2, 0.025% NaN3, and 1% BSA. After 30 minutes, the wells were emptied and 30 μl of various concentrations of potential inhibitory peptides diluted in the same buffer or buffer alone and 30 μl of ^125 I-labeled laminin, thrombospondin or apolipoprotein E (0.2 μg/ml) were added to each well. After 3 hours at 4°, the wells were washed 6 times with 0.15M NaCl, cut from the plate and the bound radioactivity counted. FIGS. 1A-B and 2A-B show the level of thrombospondin binding to sulfatide and heparin-BSA, respectively, in the presence of increasing concetrations of the peptides listed. FIGS. 3 and 4A-B show the level of laminin binding to sulfatide and heparin-BSA, respectively, in the presence of increasing concentrations of the listed peptides.
Microtiter plate wells were coated with heparin-BSA. Heparin-BSA (0.2 μg/well) was adsorbed by incubation in 50 μl of Dulbecco's PBS for 2 h at 370. The wells were emptied, filled with tris-BSA, and incubated for 30 to 60 minutes. The buffer was removed, and labelled thrombospondin was added and incubated in the wells for 3 h at 40. The wells were emptied and washed 4 times with saline. The bottoms of the wells were cut from the plate and counted to quantify thrombospondin binding. Inhibition of thrombospondin binding was determined using peptides diluted in 30 μl of 50 mM tris buffer, pH 7.8, containing 110 mM NaCl, 1 mM CaCl2, 0.025% NaN3, and 1% BSA or buffer alone and 30 μl of ^125 I-labeled TSP (0.2 μg/ml).

[2] = molecular target: basic fibroblast growth factor (FGF-2) binding to heparin; experiment: Inhibition of 125I-bFGF binding to heparin-BSA conjugate; settings: retro-inverso peptides; read-out: IC50 for Inhibition of Binding
Experimental: Binding of ^125 I-bFGF to heparin was determined using an immobilized heparin-BSA conjugate as previously described (Guo, et al. (1992) Proc. Nat'l Acad. Sci. 89:3040-3044). ^125 I-bFGF, prepared as described by Neufeld, et al, (1985), J. Biol. Chem. 260:13860-13868, was added described above, and incubated for 2 hours at 25° C. Bound radioactivity was determined after washing and cutting the wells from the plate. FIGS. 40A, B and C show the inhibition of ^125 I-bFGF binding to heparin by a number of TSP peptide analogs.

bovine endothelial cells = experiment: Inhibition of bovine endothelial cell proliferation (Table 7); type: cell-based; settings: free peptide; read-out: IC50 Inhibitory Activity, Free Peptide
Experimental: Similar structure-function and epitope mapping studies were carried out with regard to inhibition of bovine endothelial cell proliferation. […] This may be due either to a lower tendency of the conjugates to stick to the microtiter wells or a greater tendency to disrupt binding of the cells to the substratum in the wells.
Endothelial cell proliferation was measured using the CELL TITER 96™ assay (Promega, Madison, Wis.). 5×10^3 cells were plated into each well of a 96-well culture plate in 0.5 or 5% FCS-containing medium together with the indicated concentrations of growth effectors. After 72 h, 15 μl of dye solution was added to each well, and the plates were incubated for an additional 4 h. Solubilization solution was added, and absorbance at 570 nm was determined after 24 h as described by the manufacturer.

[3] = molecular target: thrombospondin binding to sulfatide; experiment: Inhibition of 125I-thrombospondin binding to sulfatide; parameters: species or system human; settings: Table 1, free peptide
Experimental: as §1

[4] = molecular target: laminin binding to heparin; experiment: Inhibition of 125I-laminin binding to heparin-BSA; parameters: species or system mouse; settings: Table 2, free peptide
Experimental: as §1

[5] = molecular target: laminin binding to sulfatide; experiment: Inhibition of 125I-laminin binding to sulfatide; parameters: species or system mouse; settings: Table 2, free peptide
Experimental: as §1

[6] = molecular target: apolipoprotein E binding to heparin; experiment: Inhibition of 125I-apolipoprotein E binding to heparin-BSA; settings: Table 2, free peptide; read-out: IC50 Apo E Binding to Heparin
Experimental: as §1

A2058 melanoma cells [7] = experiment: A2058 melanoma cell adhesion to peptides adsorbed on plastic; type: cell-based, human
Experimental: Human melanoma cell line A2058 (Todaro et al., Proc. Natl. Acad. Sci USA 77, 5258-5262 (1980)) was maintained by monolayer culture at 37° with 5% carbon dioxide in RPMI 1640 medium containing 10% fetal bovine serum. For attachment assays, cells were removed using trypsin, passaged at 10^4 cells/cm^2 and harvested between days 5 and 7. Attachment and spreading on thrombospondin-coated plastic was determined as previously described (Roberts et al., J. Cell Biol. 104, 131-139 (1987)). Inhibition was determined by adding the inhibitor diluted in 0.4 ml of bicarbonate-free RPMI 1640 medium, containing 1 mg/ml of bovine serum albumin (fatty acid free, Sigma), pH 7.3, to wells of a 24-well dish containing bacteriological polystyrene was coated with the indicated peptides at 200 μg/ml. Melanoma cells were harvested by incubation with phosphate buffered saline containing 2.5 mM EDTA for 20 minutes at 37°. The cells were centrifuged and viability (routinely >99%) was assessed by trypan blue exclusion. The cells were resuspended in medium and allowed to recover in suspension for 1 h. Melanoma cells (2×10^5 ) suspended in 100 μl of medium (approx 10^3 /mm^2) were added to each well and allowed to attach for 60 minutes at 37° C. in a humidified atmosphere.

A2058 melanoma cells [8] = experiment: 125I-thrombospondin binding to A2058 melanoma cells; type: cell-based, human
Experimental: (§2) Melanoma cells (1×10^5 in 0.2 ml) were incubated with 0.2 μg/ml labeled laminin alone or in the presence of 200 micrograms per ml of peptides from SEQ ID NO:1, SEQ ID NO:2, or SEQ ID NO:3, type-I repeats from thrombospondin (FIG. 5A). Melanoma cells were also incubated with labelled laminin or thrombospondin alone or in the presence of 10 μg/ml of peptides from the first (184, SEQ ID NO:1), second (185, SEQ ID NO:2 and 246, SEQ ID NO:19), or third type I repeat of thrombospondin (186, SEQ ID NO:3) or 1 μg/ml heparin (FIG. 5B). The cells were centrifuged through oil to separate the free laminin from the bound laminin followed by quantifying the radioactivity in the cell pellet by a gamma counter. The results are presented in FIGS. 5A and B, as a percent of control binding determined in the absence of peptide and is the mean of triplicate determinations±the standard deviation.
(§3) Melanoma cells (3×10^5 cells in 0.2 ml) were incubated with 0.2 μg/ml of labelled I^125 -thrombospondin alone or in the presence of increasing concentrations of heparin or a peptide having the sequence according to SEQ ID NO:1 or a combination of the two inhibitors. […]
(§4) A2058 melanoma cells were harvested as described above and suspended in Dulbecco's PBS containing 1 mg/ml BSA. […] The supernatant fluid was aspirated, and the bottom of the tube was cut and counted.

A2058 melanoma cells [9] = experiment: 125I-laminin binding to A2058 melanoma cells; type: cell-based, human; settings: excess heparin
Experimental: as §2, §3, §4

[10] = test system: MDA MB435 breast carcinoma cells; experiment: MDA MB435 human breast carcinoma cell proliferation; type: cell-based; settings: free peptide
Experimental: Human breast carcinoma cells MDA MB435 (American Type Culture Collection) were grown in RPMI 1640 medium containing 10% fetal calf serum. Proliferation was determined as described in FIG. 18 and 44A, B and C.
Human breast carcinoma cells MDA MB435 (American Type Culture Collection) were grown in RPMI 1640 medium containing 10% fetal calf serum. Proliferation was determined in the presence of 0.5% fetal calf serum and bFGF as described in FIG. 19.

AIDS-KS cells = experiment: AIDS-KS cell chemotaxis, modified Boyden chamber; type: cell-based, human; settings: added in the lower well
Experimental: Directed migration (chemotaxis) and general migration (chemokinesis) of AIDS-KS cells in culture was measured by the modified Boyden chamber assay using fibronectin coated […] Nucleopore filters as previously described. In brief, the AIDS-KS cells, were trypsinized then resuspended in RPMI 1640 containing […] (GIBCO-BRL) and 20% activated lymphocyte conditioned medium. The trypsinized cells were allowed to recover in suspension for 2 hours, then the cells were recovered by centrifugation and resuspended in RPMI 1640 containing 0.1% BS at 5×10^5 cells/ml prior to adding 100 μl to the upper wells in the chemotaxis chamber. Migration to BSA (0.1%) and OSM was performed in the presence of the indicated concentrations of TSP, and TSP peptide-FICOLL conjugates. After 3 hours incubation at 37° C. filters were stained with Diff Quick (Merz-Dade, Dudingen, Switzerland), and the migrated cells in ten high-power fields were counted. The values are triplicate determinations and the bars indicate standard deviations, n=3.

[11] = retro-inverso peptides, free, read-out: IC50 Inhibitory Activity, Free Peptide
[12] = Table 1, free peptide, read-out: IC50 Heparin Binding, inhibition of 125I-thrombospondin binding

IC50 [1, 11]: 6.2 µM | IC50 [2]: 18 µM
Molecule: CC(=O)N[C@H](CS)C(=O)N[C@H](CO)C(=O)N[C@H](CO)C(=O)N[C@H](C)C(=O)N1CCC[C@@H]1C(=O)N[C@H](CO)C(=O)N[C@H](C)C(=O)N[C@H](Cc1c[nH]cn1)C(=O)N[C@H](CO)C(=O)N[C@H](C)C(=O)NCC(=O)NCC(=O)N[C@H](CC(=O)O)C(=O)N[C@H](CCC(N)=O)C(=O)N[C@H](CCCCN)C(=O)N[C@H](C)C(=O)N[C@H](CCCNC(=N)N)C(=O)N[C@H](CCCCN)C(N)=O [Peptide 513, ri-amKRAKQDGGASHASPASSCac] (Ac-[dC][dS][dS][dA][dP][dS][dA][dH][dS][dA]GG[dD][dQ][dK][dA][dR][dK]-NH2)
IC50 (bovine endothelial cells): 18 µM

IC50 [1, 12]: 6 µM | inhibition of thrombospondin binding to heparin, in words ([1]; free peptide): active | IC50 [3]: 14 µM | IC50 [4]: 3 µM | IC50 [5]: 3.9 µM | IC50 [6]: 84 µM
Molecule: CC(C)[C@H](NC(=O)[C@H](CO)NC(=O)[C@@H](N)CS)C(=O)N[C@H](C(=O)N[C@@H](CS)C(=O)NCC(=O)O)[C@@H](C)O [Peptide 187, CSVTCG] (H-CSVTCG-OH)
promotion of melanoma cell adhesion, in words (A2058 melanoma cells [7]; peptide adsorbed on plastic): promoted significant cell adhesion above background

Molecule: apolipoprotein E: recombinant apolipoprotein E, heparin-binding protein
inhibition of A2058 adhesion to the peptides (A2058 melanoma cells [7]; disks coated with 200 μg/ml peptide 185): inhibited adhesion

Molecule: heparin [reference compound]
inhibition of thrombospondin binding to A2058 melanoma cells by heparin (A2058 melanoma cells [8]; heparin): approximately 90% | laminin binding resistant to inhibition (A2058 melanoma cells [9]): approximately 50%

IC50 [1, 11]: 0.13 µM | IC50 [2]: > 20 µM
Molecule: C[C@@H](NC(=O)CCS)C(=O)N[C@H](C)C(=O)N[C@H](Cc1c[nH]c2ccccc12)C(=O)N[C@H](Cc1c[nH]cn1)C(=O)N[C@H](CO)C(=O)N[C@H](Cc1c[nH]c2ccccc12)C(=O)NCC(=O)NCC(=O)N[C@H](C)C(=O)N[C@H](CCC(N)=O)C(=O)N[C@H](CCCCN)C(=O)N[C@H](C)C(=O)N[C@H](CCCNC(=N)N)C(=O)N[C@H](CCCCN)C(N)=O [Peptide 483, ri-amKRAKQAGGWSHWAAtp] ([Mpa][dA][dA][dW][dH][dS][dW]GG[dA][dQ][dK][dA][dR][dK]-NH2)
IC50 (bovine endothelial cells): 4 µM | inhibition of MDA MB435 proliferation, in words [10]: active

IC50 [1, 12]: 47 µM | IC50 [3]: 14 µM | IC50 [4]: 36 µM | IC50 [5]: 42 µM | IC50 [6]: 4.2 µM
Molecule: C[C@@H](O)[C@H](NC(=O)[C@H](CO)NC(=O)[C@H](CS)NC(=O)[C@H](CO)NC(=O)[C@@H](NC(=O)[C@H](Cc1c[nH]c2ccccc12)NC(=O)[C@H](CCC(=O)O)NC(=O)[C@H](CO)NC(=O)[C@H](Cc1c[nH]c2ccccc12)NC(=O)[C@@H]1CCCN1C(=O)[C@@H](N)CO)[C@@H](C)O)C(=O)N[C@@H](CO)C(=O)O [Peptide 184, SPWSEWTSCSTS] (H-SPWSEWTSCSTS-OH)
inhibition of thrombospondin binding to A2058 melanoma cells, in words (A2058 melanoma cells [8]; dose dependent): inhibited

B1: oncostatin M: growth factor, chemoattractant for AIDS-KS cells (protein, UniProt P13725 26-221, looked up)
Oncostatin-M: AAIGSCSKEYRVLLGQLQKQTDLMQDTSRLLDPYIRIQGLDVPKLREHCRERPGAFPSEETLRGLGRRGFLQTLNATLGCVLHRLADLEQRLPKAQDLERSGLNIEDLEKLQMARPNILGLRNNIYCMAQLLDNSDTAEPTKAGRGASQPPTPTPASDAFQRKLEGCRFLHGYHRFMHSVGRVFSKWGESPNRSRR
stimulation of AIDS-KS cell motility (AIDS-KS cells): simulated motility

From patent US5770563A, “Heparin- and sulfatide binding peptides from the type I repeats of human thrombospondin and conjugates thereof” (The United States of America as represented by the …, priority 1995, dated 1998)
